The supplement of paper PMC10307832

Assays:
Test in all cases: relative viability (nuclei count vs DMSO), 5 days (fraction); higher = more cells survive
Temozolomide + Alpelisib = compound: Cn1nnc2c(C(N)=O)ncn2c1=O [Temozolomide] + Cc1nc(NC(=O)N2CCC[C@H]2C(N)=O)sc1-c1ccnc(C(C)(C)C(F)(F)F)c1 [Alpelisib] (partner 2 µM)
Procedure, shortened: (§1)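 Lung cancer cell lines were seeded in 1536-well plates and dosed by pin tool the next day, with either a single drug or a fixed anchor-drug dose combined with five library-drug doses (not always all listed) spaced in √10 steps. Five days later, one step fixed the cells and stained their nuclei (final 0.05% Triton X-100, 1% formaldehyde, 1 ug/ml Hoechst), and nuclei were counted on 4× images. Relative viability is the nuclei count in treated wells divided by the count in vehicle wells, and each value is the median of duplicate plates.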

[1] = compound: Cn1nnc2c(C(N)=O)ncn2c1=O [Temozolomide] + Cc1cc(Nc2cc(N3CCN(C)CC3)nc(Sc3ccc(NC(=O)C4CC4)cc3)n2)n[nH]1 [Tozasertib] (partner 0.1 µM)
Procedure, shortened: as §1

AZD5582 + Lapatinib = compound: C[C@@H](C(=O)N[C@@H](C1CCCCC1)C(=O)N2CCC[C@H]2C(=O)N[C@@H]3[C@@H](CC4=CC=CC=C34)OCC#CC#CCO[C@@H]5CC6=CC=CC=C6[C@@H]5NC(=O)[C@@H]7CCCN7C(=O)[C@H](C8CCCCC8)NC(=O)[C@H](C)NC)NC [AZD5582] + CS(=O)(=O)CCNCc1ccc(-c2ccc3ncnc(Nc4ccc(OCc5cccc(F)c5)c(Cl)c4)c3c2)o1 [Lapatinib] (partner 2 µM)
Procedure, shortened: as §1

Temozolomide + Olaparib = compound: Cn1nnc2c(C(N)=O)ncn2c1=O [Temozolomide] + O=C(c1cc(Cc2n[nH]c(=O)c3ccccc23)ccc1F)N1CCN(C(=O)C2CC2)CC1 [Olaparib] (partner 8 µM)
Procedure, shortened: as §1

| Cell Line | relative viability (Temozolomide + Alpelisib; first compound 0.2 µM) | relative viability (Temozolomide + Alpelisib; first compound 0.6325 µM) | relative viability (Temozolomide + Alpelisib; first compound 2 µM) | relative viability (Temozolomide + Alpelisib; first compound 6.325 µM) | relative viability (Temozolomide + Alpelisib; first compound 20 µM) | relative viability ([1]; first compound 0.2 µM) | relative viability ([1]; first compound 0.6325 µM) | relative viability ([1]; first compound 2 µM) | relative viability ([1]; first compound 6.325 µM) | relative viability ([1]; first compound 20 µM) | relative viability (AZD5582 + Lapatinib; first compound 0.001581 µM) | relative viability (AZD5582 + Lapatinib; first compound 0.005 µM) | relative viability (AZD5582 + Lapatinib; first compound 0.01581 µM) | relative viability (AZD5582 + Lapatinib; first compound 0.05 µM) | relative viability (Temozolomide + Olaparib; first compound 0.2 µM) | relative viability (Temozolomide + Olaparib; first compound 0.6325 µM) | relative viability (Temozolomide + Olaparib; first compound 2 µM) | relative viability (Temozolomide + Olaparib; first compound 6.325 µM) | relative viability (Temozolomide + Olaparib; first compound 20 µM) |
| --- | --- | --- | --- | --- | --- | --- | --- | --- | --- | --- | --- | --- | --- | --- | --- | --- | --- | --- | --- |
| PC-3 [JPC-3] | 1.09 | 0.982 | 0.979 | 1.07 | 0.396 | 0.935 | 0.945 | 0.934 | 0.901 | 0.431 | 0.423 | 0.411 | 0.448 | 0.26 | 0.909 | 1.16 | 1.12 | 0.988 | 0.435 |
| PC-14 | 1.08 | 0.958 | 0.95 | 0.867 | 0.217 | 0.439 | 0.608 | 0.558 | 0.293 | 0.0992 | 0.301 | 0.391 | 0.33 | 0.223 | 0.279 | 0.371 | 0.228 | 0.171 | 0.153 |
| RERF-LC-KJ | 0.638 | 0.88 | 0.923 | 0.861 | 0.743 | 0.535 | 0.465 | 0.538 | 0.504 | 0.499 | 0.732 | 0.748 | 0.8 | 0.83 | 0.975 | 1.05 | 0.998 | 0.846 | 0.799 |
| SK-LU-1 | 1.43 | 0.976 | 0.901 | 0.525 | 0.394 | 0.354 | 0.326 | 0.335 | 0.273 | 0.235 | 0.645 | 0.639 | 0.859 | 0.317 | 0.428 | 0.446 | 0.416 | 0.292 | 0.203 |
| SK-MES-1 | 1.06 | 0.919 | 1.06 | 0.836 | 0.778 | 1.02 | 0.919 | 0.985 | 0.939 | 0.973 | 0.492 | 0.648 | 0.455 | 0.571 | 0.824 | 0.632 | 0.648 | 0.532 | 0.414 |
| SW 1573 | 0.714 | 0.783 | 0.809 | 0.69 | 0.8 | 0.298 | 0.177 | 0.162 | 0.207 | 0.169 | 0.954 | 1.28 | 1.24 | 1.09 | 0.585 | 0.534 | 0.424 | 0.302 | 0.236 |
| UMC-11 | 1.08 | 0.829 | 1.02 | 0.934 | 0.518 | 0.204 | 0.198 | 0.214 | 0.198 | 0.191 | 0.89 | 0.976 | 0.851 | 1.01 | 0.386 | 0.612 | 0.382 | 0.306 | 0.265 |
